{"source": "patent US20090298045A1", "about": "“Method For Selectively Expanding, Selecting And Enriching Stem/Progenitor Cell Populations” (Tel Hashomer-Medical Research, Infrastructure And Services …, priority 2004, published 2009)", "format_in_all_cases": "cell-based, human", "key": {"UCB-derived CD133+ cells": {"system": "UCB-derived CD133+ cells", "assay": "Ex vivo expansion of purified UCB-derived CD133+ cells with cytokines, CD133+ cell fraction by flow cytometry", "conditions": "for CD133+ cell population with cytostatic agent: colchicine 2.5 ng/ml, two weeks expansion; for Fold enrichment (CD133+): with vs without colchicine 2.5 ng/ml, two weeks", "description": "Cells were obtained from human umbilical cord blood (UCB) after normal fall-term delivery. The cells were layered on a Ficoll-Hypaque gradient (1.077 g/ml Sigma), and centrifuged at 500 g for 30 minutes. The mononuclear cells in the interface layer were collected and washed three times in phosphate-buffered saline (PBS; Biological Industries) containing 0.5% Bovine serum albumin (BSA). To purify the CD133^+ cells, the mononuclear cell fraction was subjected to two cycles of immunomagnetic bead separation using a MiniMACS CD133 progenitor cell isolation kit (Miltenyi Biotec,), according to the manufacturer's recommendations.\n(§1) Purified CD133^+ cells were cultured in 24-well culture plate at densities of 2-4×10^4 cells in alpha-MEM medium (Biological Industries) supplemented with 10% fetal calf serum (Biological Industries) and the following human recombinant cytokines (Pepro Tech, Inc., Rocky Hill, N.J., USA): Trombopoietin, interleukin-6, FLT-3 ligand and Stem Cell Factor, at final concentration of 50 ng/ml each as well as interleukin-3 and IL2 at 20 ng/ml, in the absence or presence of colchicine in a concentration scale as indicated. Cells were expanded at 37° C. in a humidified atmosphere of 5% CO2 in air.\n(§2) Cultures were depopulated twice a week and a fresh medium in which growth factors and colchicine were added. At various time points, cells were counted after staining with trypan blue and harvested cells were used for enumeration of CD133^+ cells following immunophenotype analysis.\n(§3) The cells were washed with a PBS solution containing 1% BSA and stained (at 4° C. for 30 min) with fluorescein isothiocyanate (FITC)- or phycoerythrin (PE)-conjugated antibodies that are specifically described in the next sections. Cells were washed in the abovementioned buffer and analyzed by flow cytometer (Becman coulter). Cells were passed at a rate of up to 1000 cells/second, using a 488-nm argon laser beam as the light source for excitation.\n(§4) The percentage of CD133^+ cell fraction from total cells was determined by flow cytometry using. PE-anti-CD133^+ antibody (Miltenyi Biotec). Fold enrichment was calculated by dividing the CD133^+ cell percentage of culture growing with cytostatic agent by the CD133^+ cell percentage of culture growing without cytostatic agent. Since cultures were depopulated twice a week, the culture volume was calculated by multiplying the actual volume with the number of passages. Fold expansion was calculated by dividing the CD133^+ cell content of the culture by the initial number of cultured CD133^+ cells."}, "[1]": {"system": "Fresh, enriched CD133+ stem cells", "assay": "Cell counts and fold expansion of CD133+ stem cells after ex-vivo expansion", "conditions": "colchicine 2.5 ng/ml; for Fold expansion of CD133+ cells: 2 weeks vs T0", "description": "as §1, §2, §4"}, "[2]": {"system": "CD34+CD38- early stem cell sub-population of UCB derived CD133+ cells", "assay": "Determination of CD34+CD38- early stem cell subset in cultured CD133+ cells by flow cytometry", "conditions": "for CD34+38- cell population with cytostatic agent: colchicine 2.5 ng/ml, one week expansion; for Fold enrichment (CD34+38-): with vs without colchicine 2.5 ng/ml, one week", "description": "as §1, §3\nThe percentages of early stem cell subsets were determined from the purified fresh and/or cultured CD133^+ cell fraction. Cells were dually stained with PE anti-CD34 and FITC anti-CD38 (DAKO) for determination of CD34^+ CD38^− cells by flow cytometry analyses with PE anti-CD133^+ antibody (Miltenyi Biotec)."}, "[3]": {"conditions": "Exp. 1, T0 0.4 × 10^3 CD133+ cells"}, "[4]": {"conditions": "Exp. 2, T0 0.2 × 10^3 CD133+ cells"}, "[5]": {"conditions": "Exp. 3, T0 0.4 × 10^3 CD133+ cells"}}}
{"smiles": "COc1cc2c(c(OC)c1OC)-c1ccc(OC)c(=O)cc1[C@@H](NC(C)=O)CC2", "note": "[colchicine]", "values": [{"measurement": "optimal concentration in which the highest CD133+ cells enrichment was achieved", "setting": "UCB-derived CD133+ cells; 2 weeks expansion, three independent experiments, FIG. 3", "result": 2.5, "unit": "ng/mL"}, {"measurement": "CD133+ cell population with cytostatic agent", "setting": "UCB-derived CD133+ cells; Donor # 1 (first line)", "result": 4, "unit": "%"}, {"measurement": "Fold enrichment (CD133+)", "setting": "UCB-derived CD133+ cells; Donor # 1 (first line)", "result": 4}, {"measurement": "CD133+ cell population with cytostatic agent", "setting": "UCB-derived CD133+ cells; Donor # 1", "result": 7, "unit": "%"}, {"measurement": "Fold enrichment (CD133+)", "setting": "UCB-derived CD133+ cells; Donor # 1", "result": 7}, {"measurement": "CD133+ cell population with cytostatic agent", "setting": "UCB-derived CD133+ cells; Donor # 3", "result": 15, "unit": "%"}, {"measurement": "Fold enrichment (CD133+)", "setting": "UCB-derived CD133+ cells; Donor # 3", "result": 2.5}, {"measurement": "CD133+ cell population with cytostatic agent", "setting": "UCB-derived CD133+ cells; Mean ± SD of three donors", "result": "8.7 ± 5.7", "unit": "%"}, {"measurement": "Fold enrichment (CD133+)", "setting": "UCB-derived CD133+ cells; Mean ± SD of three donors", "result": "4.5 ± 2.3"}, {"measurement": "enrichment of UCB-derived CD133+ cell-fraction (in words)", "setting": "UCB-derived CD133+ cells; concentration scale, 2 weeks expansion, FIG. 3", "result": "dose-dependent enrichment"}, {"measurement": "CD133+ cells, T(2 weeks), with colchicine", "setting": "[1]; [3]", "result": "5.4 × 10^3"}, {"measurement": "Total cells, T(2 weeks), with colchicine", "setting": "[1]; [3]", "result": "135 × 10^3"}, {"measurement": "Fold expansion of CD133+ cells", "setting": "[1]; Exp. 1", "result": "(X 13.5)"}, {"measurement": "CD133+ cells, T(2 weeks), with colchicine", "setting": "[1]; [4]", "result": "4.7 × 10^3"}, {"measurement": "Total cells, T(2 weeks), with colchicine", "setting": "[1]; [4]", "result": "68 × 10^3"}, {"measurement": "Fold expansion of CD133+ cells", "setting": "[1]; Exp. 2", "result": "(X 23.5)"}, {"measurement": "CD133+ cells, T(2 weeks), with colchicine", "setting": "[1]; [5]", "result": "4.1 × 10^3"}, {"measurement": "Total cells, T(2 weeks), with colchicine", "setting": "[1]; [5]", "result": "27 × 10^3"}, {"measurement": "Fold expansion of CD133+ cells", "setting": "[1]; Exp. 3", "result": "(X 10.2)"}, {"measurement": "percentage of CD34+CD38- sub-population, treated vs un-treated cultures (in words)", "setting": "[2]; 1 week in culture", "result": "increase in the percentage"}, {"measurement": "CD34+38- cell population with cytostatic agent", "setting": "[2]; Donor # 3", "result": 15, "unit": "%"}, {"measurement": "Fold enrichment (CD34+38-)", "setting": "[2]; Donor # 3", "result": 1.7}, {"measurement": "CD34+38- cell population with cytostatic agent", "setting": "[2]; Donor # 4", "result": 5, "unit": "%"}, {"measurement": "Fold enrichment (CD34+38-)", "setting": "[2]; Donor # 4", "result": 10}]}
